Measured values: ChEMBL document CHEMBL1671694, “OXA-24 carbapenemase gene flanked by XerC/XerD-like recombination sites in different plasmids from different Acinetobacter species isolated during a nosocomial outbreak” (2010)
Values after ≈ are worked out from the molar mass of the structure shown.

Columns and labels:
[1] = tested on: Acinetobacter baylyi; experiment: Antimicrobial activity against Acinetobacter baylyi ADP1 by microdilution method; format: functional
[2] = tested on: Acinetobacter baylyi; experiment: Antimicrobial activity against Acinetobacter baylyi ADP1 harboring pMMCU1 plasmid expressing bla-OXA-24 gene by microdilution method; format: functional

SMILES | MIC [1] | MIC [2]
C[C@@H](O)[C@H]1C(=O)N2C(C(=O)O)=C(SCCNC=N)C[C@H]12 [IMIPENEM ANHYDROUS] | 0.094 µg/mL (≈ 0.314 µM) | > 32 µg/mL
C[C@@H](O)[C@H]1C(=O)N2C(C(=O)O)=C(S[C@@H]3CN[C@H](C(=O)N(C)C)C3)[C@H](C)[C@H]12 [MEROPENEM] | 0.25 µg/mL (≈ 0.652 µM) | > 32 µg/mL
